Literature values as cited in paper PMC6862717 (ACS chemical neuroscience, 2018).

Tests used:
[1] = tested on: transgenic animal model of AD
[2] = tested on: animal model of neuropathic pain

Row | Compound | cognitive performance in wild-type mice (wild-type mice) | efficacy in a transgenic animal model of AD [1] | neuroprotective properties in nematodes (nematodes) | mechanical hypersensitivity [2]
1 | CN1CCN(c2ccc3c(c2)[C@H]2C[C@@H]3CCN2C(=O)OCc2ccccc2)CC1 (racemic) [SAS-0132] | improves cognitive performance | efficacious | shows neuroprotective properties | 
2 | UKH-1114 |  |  |  | relieves mechanical hypersensitivity
